Test [1] deals with Platelet-derived growth factor receptor alpha (Homo sapiens, UniProt P16234). Nature of the test: Selectivity interaction (Ambit KINOMEscan and KiNATiv profiling in Jurkat cells) EUB0000090b PDGFRA. It counts as cell-based. The conditions noted are these: at 1 µM.
Test [2] has as its target T1, Myotonin-protein kinase (Homo sapiens) (UniProt Q09013).
T1 sequence (whole entry): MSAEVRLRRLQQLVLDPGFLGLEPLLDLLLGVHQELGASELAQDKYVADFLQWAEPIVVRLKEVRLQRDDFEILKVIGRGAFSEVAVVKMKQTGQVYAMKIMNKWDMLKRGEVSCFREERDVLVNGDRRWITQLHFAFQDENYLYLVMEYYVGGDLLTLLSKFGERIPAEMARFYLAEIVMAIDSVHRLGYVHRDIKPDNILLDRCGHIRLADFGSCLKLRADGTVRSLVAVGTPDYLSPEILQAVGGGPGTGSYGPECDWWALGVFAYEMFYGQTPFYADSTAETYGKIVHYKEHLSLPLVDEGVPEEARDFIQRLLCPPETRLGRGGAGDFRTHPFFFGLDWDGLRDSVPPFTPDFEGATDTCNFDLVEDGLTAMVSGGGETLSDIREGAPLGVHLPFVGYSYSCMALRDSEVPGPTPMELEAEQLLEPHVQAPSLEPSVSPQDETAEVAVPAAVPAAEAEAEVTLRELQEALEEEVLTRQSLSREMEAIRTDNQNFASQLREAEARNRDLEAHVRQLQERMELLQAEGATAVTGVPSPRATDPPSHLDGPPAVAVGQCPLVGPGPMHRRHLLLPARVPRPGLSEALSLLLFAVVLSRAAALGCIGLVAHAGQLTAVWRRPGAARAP
The conditions noted are these: at 10 µM.

Test [3] deals with Serine/threonine-protein kinase N1 (Homo sapiens, UniProt Q16512). The test is described as follows: Selectivity interaction (KinomeScan (DiscoverX)) EUB0000229b PKN1. Conditions: at 10 µM.
For test [4], the target named is T2, Sphingosine kinase 2 (Homo sapiens) (UniProt Q9NRA0).
T2 sequence (whole entry): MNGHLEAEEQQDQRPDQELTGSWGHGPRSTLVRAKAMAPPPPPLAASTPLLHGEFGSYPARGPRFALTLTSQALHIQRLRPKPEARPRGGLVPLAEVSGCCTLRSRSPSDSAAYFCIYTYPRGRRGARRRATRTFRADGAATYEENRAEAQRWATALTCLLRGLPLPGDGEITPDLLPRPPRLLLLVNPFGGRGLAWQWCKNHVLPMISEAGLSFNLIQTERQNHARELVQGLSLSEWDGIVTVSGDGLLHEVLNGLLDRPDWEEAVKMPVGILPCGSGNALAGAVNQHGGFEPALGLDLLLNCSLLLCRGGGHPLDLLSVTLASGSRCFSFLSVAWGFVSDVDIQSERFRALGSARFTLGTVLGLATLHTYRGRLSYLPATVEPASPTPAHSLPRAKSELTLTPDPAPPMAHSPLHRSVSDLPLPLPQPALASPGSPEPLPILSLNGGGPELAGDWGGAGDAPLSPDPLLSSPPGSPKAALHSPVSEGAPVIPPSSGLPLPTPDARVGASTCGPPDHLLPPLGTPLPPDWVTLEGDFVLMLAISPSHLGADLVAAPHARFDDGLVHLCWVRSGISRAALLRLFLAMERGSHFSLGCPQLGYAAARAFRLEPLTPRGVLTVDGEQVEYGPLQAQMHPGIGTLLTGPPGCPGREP
Nature of the test: Selectivity interaction (Kinase panel (Invitrogen)) EUB0000639a SPHK2. Conditions: at 200 nM.

The target in another test is Activated CDC42 kinase 1 (Homo sapiens, UniProt Q07912). Conditions: at 10 µM.
Activated CDC42 kinase 1, sequence (Q07912 whole entry, looked up, the tested form may be a part): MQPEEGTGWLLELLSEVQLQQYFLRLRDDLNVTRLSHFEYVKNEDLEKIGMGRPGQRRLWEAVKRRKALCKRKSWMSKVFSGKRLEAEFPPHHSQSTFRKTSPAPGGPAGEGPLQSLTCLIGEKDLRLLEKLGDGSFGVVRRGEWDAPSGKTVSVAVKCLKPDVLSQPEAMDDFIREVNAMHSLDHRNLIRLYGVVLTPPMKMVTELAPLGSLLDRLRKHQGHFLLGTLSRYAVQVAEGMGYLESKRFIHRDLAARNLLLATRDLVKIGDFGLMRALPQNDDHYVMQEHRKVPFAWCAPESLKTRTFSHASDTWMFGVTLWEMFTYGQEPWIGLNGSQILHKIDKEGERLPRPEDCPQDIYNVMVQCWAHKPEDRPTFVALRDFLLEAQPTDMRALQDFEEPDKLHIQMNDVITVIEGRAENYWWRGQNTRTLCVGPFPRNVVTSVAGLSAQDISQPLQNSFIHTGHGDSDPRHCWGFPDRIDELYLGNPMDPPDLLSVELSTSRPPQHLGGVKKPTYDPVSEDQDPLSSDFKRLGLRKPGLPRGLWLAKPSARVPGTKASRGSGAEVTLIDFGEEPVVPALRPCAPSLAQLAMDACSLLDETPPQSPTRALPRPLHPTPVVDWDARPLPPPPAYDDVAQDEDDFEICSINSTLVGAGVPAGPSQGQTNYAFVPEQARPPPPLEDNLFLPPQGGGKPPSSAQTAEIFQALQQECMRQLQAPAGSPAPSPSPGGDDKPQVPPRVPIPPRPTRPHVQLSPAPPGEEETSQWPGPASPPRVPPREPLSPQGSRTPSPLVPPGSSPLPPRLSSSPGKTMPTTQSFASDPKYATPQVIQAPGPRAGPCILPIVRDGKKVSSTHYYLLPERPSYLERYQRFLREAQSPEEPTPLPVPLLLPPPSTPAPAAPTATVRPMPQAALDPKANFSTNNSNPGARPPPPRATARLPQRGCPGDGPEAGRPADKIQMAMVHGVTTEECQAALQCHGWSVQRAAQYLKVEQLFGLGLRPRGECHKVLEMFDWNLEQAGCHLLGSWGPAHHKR
The target of test [5] is Phosphatidylinositol 4-phosphate 3-kinase C2 domain-containing subunit alpha (Homo sapiens) (UniProt O00443). Nature of the test: Selectivity interaction (ProQinase) EUB0000171b PIK3C2A.
Phosphatidylinositol 4-phosphate 3-kinase C2 domain-containing subunit alpha (Homo sapiens), sequence (O00443 whole entry, the tested form may be a part): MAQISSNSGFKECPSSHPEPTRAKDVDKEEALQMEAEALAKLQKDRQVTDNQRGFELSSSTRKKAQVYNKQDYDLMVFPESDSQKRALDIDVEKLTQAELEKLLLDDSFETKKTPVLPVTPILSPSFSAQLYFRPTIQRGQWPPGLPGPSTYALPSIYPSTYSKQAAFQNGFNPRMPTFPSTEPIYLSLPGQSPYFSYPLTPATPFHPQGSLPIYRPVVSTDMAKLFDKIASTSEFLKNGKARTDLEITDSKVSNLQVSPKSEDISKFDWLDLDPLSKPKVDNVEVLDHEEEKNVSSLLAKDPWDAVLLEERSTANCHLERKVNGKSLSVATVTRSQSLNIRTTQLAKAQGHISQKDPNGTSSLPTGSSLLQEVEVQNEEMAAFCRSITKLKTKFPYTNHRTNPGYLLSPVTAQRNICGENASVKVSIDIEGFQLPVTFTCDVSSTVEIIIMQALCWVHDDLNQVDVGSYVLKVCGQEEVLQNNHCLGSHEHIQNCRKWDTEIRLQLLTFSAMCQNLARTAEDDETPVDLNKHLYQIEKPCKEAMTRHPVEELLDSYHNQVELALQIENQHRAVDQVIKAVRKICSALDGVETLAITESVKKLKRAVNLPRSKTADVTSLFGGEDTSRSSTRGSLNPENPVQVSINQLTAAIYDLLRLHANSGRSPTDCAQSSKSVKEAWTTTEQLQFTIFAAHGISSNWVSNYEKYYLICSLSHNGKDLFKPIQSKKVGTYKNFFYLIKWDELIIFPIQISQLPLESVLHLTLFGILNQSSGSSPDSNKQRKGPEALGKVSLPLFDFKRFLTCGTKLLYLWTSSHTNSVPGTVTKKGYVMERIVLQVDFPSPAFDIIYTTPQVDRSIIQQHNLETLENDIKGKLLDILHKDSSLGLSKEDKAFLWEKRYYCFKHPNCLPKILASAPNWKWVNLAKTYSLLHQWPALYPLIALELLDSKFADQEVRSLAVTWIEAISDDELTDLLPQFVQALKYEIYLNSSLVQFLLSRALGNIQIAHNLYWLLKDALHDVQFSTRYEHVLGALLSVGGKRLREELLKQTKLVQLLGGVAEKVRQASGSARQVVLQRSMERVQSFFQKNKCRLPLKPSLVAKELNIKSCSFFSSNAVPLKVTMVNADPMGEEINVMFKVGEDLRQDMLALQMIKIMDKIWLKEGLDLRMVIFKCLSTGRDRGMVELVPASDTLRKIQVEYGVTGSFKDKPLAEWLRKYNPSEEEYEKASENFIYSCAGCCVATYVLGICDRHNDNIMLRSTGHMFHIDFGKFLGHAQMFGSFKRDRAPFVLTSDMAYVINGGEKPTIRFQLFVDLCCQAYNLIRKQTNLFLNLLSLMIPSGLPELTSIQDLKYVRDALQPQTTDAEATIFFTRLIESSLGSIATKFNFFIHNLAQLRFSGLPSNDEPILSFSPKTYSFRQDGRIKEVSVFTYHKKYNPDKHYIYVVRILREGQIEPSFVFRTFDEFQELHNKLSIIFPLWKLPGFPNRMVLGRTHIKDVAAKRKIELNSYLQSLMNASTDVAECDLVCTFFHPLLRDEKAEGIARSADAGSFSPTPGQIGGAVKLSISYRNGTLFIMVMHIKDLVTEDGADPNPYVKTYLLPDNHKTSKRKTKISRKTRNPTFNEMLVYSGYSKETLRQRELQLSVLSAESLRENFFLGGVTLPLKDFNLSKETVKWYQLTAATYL
Test [6] deals with High affinity nerve growth factor receptor (Homo sapiens, UniProt P04629). Nature of the test: Selectivity interaction (KinomeScan (DiscoverX)) EUB0000092b NTRK1. The conditions noted are these: at 10 µM.
High affinity nerve growth factor receptor, sequence (P04629 33-796 limits assumed): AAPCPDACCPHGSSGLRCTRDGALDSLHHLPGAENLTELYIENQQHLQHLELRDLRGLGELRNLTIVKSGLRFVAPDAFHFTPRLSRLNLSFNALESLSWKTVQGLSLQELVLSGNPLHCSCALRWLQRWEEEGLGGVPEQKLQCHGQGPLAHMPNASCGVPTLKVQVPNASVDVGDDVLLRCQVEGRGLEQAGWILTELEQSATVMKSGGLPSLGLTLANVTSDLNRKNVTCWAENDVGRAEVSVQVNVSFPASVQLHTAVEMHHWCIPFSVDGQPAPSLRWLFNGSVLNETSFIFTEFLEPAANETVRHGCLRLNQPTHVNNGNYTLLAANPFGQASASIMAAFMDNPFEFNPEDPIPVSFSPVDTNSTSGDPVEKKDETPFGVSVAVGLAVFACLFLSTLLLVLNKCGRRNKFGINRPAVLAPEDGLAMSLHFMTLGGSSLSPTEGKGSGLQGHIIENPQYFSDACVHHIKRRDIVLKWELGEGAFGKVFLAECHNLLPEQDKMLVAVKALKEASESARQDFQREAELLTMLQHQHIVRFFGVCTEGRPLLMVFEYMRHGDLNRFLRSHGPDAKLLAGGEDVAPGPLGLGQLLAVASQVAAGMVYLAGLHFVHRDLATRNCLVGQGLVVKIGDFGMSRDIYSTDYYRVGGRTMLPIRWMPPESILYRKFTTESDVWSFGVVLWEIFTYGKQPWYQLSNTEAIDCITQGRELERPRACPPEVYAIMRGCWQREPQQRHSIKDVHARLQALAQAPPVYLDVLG
Test [7] concerns the target T3, Myosin-IIIb (Homo sapiens) (UniProt Q8WXR4).
T3 sequence (whole entry): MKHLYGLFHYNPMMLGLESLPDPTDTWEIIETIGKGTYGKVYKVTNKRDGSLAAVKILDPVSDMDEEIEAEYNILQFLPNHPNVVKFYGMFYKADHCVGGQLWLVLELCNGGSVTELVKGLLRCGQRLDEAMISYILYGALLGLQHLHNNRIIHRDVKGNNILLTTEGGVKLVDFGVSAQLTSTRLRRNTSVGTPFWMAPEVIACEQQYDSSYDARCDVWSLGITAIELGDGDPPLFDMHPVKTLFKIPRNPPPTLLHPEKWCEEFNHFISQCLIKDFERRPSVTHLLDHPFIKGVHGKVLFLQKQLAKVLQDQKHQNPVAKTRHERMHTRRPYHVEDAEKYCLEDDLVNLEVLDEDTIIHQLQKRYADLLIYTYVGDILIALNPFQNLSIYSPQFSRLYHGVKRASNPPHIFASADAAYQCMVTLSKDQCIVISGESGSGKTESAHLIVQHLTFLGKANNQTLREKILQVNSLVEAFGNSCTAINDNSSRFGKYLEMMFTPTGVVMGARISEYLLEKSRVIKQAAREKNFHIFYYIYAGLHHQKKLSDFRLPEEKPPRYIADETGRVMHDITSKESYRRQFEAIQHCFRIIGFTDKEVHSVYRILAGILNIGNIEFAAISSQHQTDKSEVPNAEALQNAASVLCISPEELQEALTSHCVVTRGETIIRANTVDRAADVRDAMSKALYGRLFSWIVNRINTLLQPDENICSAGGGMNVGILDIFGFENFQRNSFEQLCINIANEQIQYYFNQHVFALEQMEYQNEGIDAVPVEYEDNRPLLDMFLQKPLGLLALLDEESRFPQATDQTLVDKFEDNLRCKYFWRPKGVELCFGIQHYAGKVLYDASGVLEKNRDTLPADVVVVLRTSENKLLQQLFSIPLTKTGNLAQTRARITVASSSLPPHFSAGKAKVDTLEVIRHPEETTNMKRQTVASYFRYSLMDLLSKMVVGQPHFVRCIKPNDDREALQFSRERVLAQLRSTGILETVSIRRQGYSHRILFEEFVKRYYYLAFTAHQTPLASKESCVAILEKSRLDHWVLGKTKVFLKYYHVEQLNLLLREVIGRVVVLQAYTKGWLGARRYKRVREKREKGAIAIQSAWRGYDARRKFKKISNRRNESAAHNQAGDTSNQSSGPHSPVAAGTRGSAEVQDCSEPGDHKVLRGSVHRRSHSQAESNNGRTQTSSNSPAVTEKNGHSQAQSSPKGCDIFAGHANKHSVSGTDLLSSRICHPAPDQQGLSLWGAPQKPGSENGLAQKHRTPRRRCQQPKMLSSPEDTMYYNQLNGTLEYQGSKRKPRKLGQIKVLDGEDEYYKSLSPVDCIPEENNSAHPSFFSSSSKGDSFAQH
Nature of the test: Selectivity interaction (KinomeScan (DiscoverX)) EUB0000618a MYO3B. Conditions: at 10 µM.

Platelet-derived growth factor receptor alpha, sequence (P16234 whole entry): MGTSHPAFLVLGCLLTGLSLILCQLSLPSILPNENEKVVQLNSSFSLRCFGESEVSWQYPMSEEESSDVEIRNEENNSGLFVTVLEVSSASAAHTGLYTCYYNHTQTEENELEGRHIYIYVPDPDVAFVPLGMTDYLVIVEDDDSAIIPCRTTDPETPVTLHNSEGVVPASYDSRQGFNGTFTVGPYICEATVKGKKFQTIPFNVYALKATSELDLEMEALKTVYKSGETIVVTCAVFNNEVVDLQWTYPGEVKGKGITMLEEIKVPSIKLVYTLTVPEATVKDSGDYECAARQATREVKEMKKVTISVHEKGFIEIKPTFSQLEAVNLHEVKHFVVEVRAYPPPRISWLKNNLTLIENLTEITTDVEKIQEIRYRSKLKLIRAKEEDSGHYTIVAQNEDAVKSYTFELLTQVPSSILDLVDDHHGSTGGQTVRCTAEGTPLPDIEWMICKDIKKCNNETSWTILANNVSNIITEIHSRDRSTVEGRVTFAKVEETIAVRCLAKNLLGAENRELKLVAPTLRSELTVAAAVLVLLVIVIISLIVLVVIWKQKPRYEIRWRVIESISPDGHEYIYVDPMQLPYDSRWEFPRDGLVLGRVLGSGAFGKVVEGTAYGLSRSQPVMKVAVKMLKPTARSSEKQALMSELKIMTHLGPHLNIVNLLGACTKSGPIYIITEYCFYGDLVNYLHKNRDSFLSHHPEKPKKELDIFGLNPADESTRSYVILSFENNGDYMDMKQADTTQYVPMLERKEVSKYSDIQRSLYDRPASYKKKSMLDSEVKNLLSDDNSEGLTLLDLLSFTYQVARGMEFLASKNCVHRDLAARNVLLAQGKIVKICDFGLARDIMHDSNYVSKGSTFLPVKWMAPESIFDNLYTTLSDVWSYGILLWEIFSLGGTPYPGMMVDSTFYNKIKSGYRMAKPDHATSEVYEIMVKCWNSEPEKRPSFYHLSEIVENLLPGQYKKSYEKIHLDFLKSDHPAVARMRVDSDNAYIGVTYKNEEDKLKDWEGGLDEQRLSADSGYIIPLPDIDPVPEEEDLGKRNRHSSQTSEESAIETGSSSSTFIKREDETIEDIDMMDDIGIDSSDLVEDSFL

In test [1], `CN(C)C/C=C/C(=O)Nc1ccc(C(=O)N2CCCC(Nc3ncc(Cl)c(-c4c[nH]c5ccccc45)n3)C2)cc1` (centres undefined) came in with a % of control of 91%.

In test [2], `Cc1cc([C@@H](C)Nc2ccccc2C(=O)O)c2nc(N3CCOCC3)cc(=O)n2c1` [AZD-6482] displayed a % of control of 100%.

In test [3], `COc1cc(N(C)c2ccnc3ccc(C(F)(F)F)cc23)cc(OC)c1OC` came in with a % binding of 81%.

As to `CC[C@@H]1[C@H](F)C(=O)N[C@@H]1COc1nccc2cc(C(N)=O)c(OC)cc12` [ZIMLOVISERTIB], in test [4], the % of inhibition is -0.837%.

Turning to `CCN(CC)CCCCNc1ncc2cc(-c3cc(OC)cc(OC)c3)c(NC(=O)NC(C)(C)C)nc2n1`, on Activated CDC42 kinase 1, the % of control turned out to be 100%.

Regarding `C=CC(=O)Nc1cccc(C(=O)Nc2ccc(Nc3cc(-c4[nH]c(SC)nc4C)ccn3)cc2)c1`, the % of control amounted to 189% in test [5] (at 1 µM) and 183% in test [5] (at 5 µM).

Compound `CCC(=O)N1CCN(c2ccc(-n3c(=O)ccc4cnc5ccc(-c6cnc7ccccc7c6)cc5c43)cc2C(F)(F)F)CC1` had a % of control in test [6] of 64%.

With `O[C@H]1CC[C@H](Nc2ncc3nc(Nc4c(F)cc(F)cc4F)n([C@H]4CCOC4)c3n2)CC1`, the % of control in test [7] amounted to 95%.

The values above are taken from ChEMBL document CHEMBL5465560, “Selectivity Literature for EUbOPEN Chemogenomic Library” (2024).
